{"source": "patent US8778948B2", "about": "“Substituted phenylpiperazinyl aralkylalcohol derivatives, pharmaceutical compositions containing such derivatives and uses thereof” (priority 2008, dated 2014)", "key": {"Kunming mice [1]": {"test_system": "Kunming mice", "experiment": "Acetic acid-induced abdominal writhing test in mice", "type": "in vivo", "details": "1 h before 0.7% acetic acid i.p.", "description": "Acetic Acid-Induced Abdominal Writhing Test in Mice\nKunming mice, SPF KM mice purchased from […] SLAC LABORATORY ANIMAL CO. LTD and kept in normal environment.\n(§1) 2. Modes of Administration\nThe compounds were dissolved in water for injection at a concentration of 4 mg/ml, 2 mg/ml and 1 mg/ml and were given intragastrically to animals.\n(§2) Three different doses (10, 20, and 40 mg/kg) were administered to the test groups.\nAspirin was used as a positive control and acetic acid writhing test was used.\n30 mice (half male and half female) weighing 18-23 g were divided into five groups, including negative control group, positive control group, low dose group, medium dose group and high dose group:\nMice in test group received test drug (10 mg/kg, 20 mg/kg, 40 mg/kg) via intragastric administration. Negative control group received physiological saline (20 ml/kg) via oral administration. Positive control group received aspirin (200 mg/kg) via oral administration. One hour later, each group received 0.7% acetic acid 10 ml/kg intraperitoneally. Five minutes later, the number of writhes was counted within the subsequent 15 min period; inhibition percentage of writhing response in each test group was calculated by the following equation: […]"}, "Kunming mice [2]": {"test_system": "Kunming mice", "experiment": "Hot-plate test in mice", "type": "in vivo", "details": "1 h post dose, hot plate 55° C.", "description": "Kunming mice, SPF KM mice were purchased from […] SLAC LABORATORY ANIMAL CO. LTD and kept in normal environment.\nas §1\nThe compounds were dissolved in water for injection at a concentration of 4 mg/ml, 2 mg/ml and 1 mg/ml and were given subcutaneously to animals.\nas §2\nMorphine was used as a positive control and hot plate test was used.\n30-40 mice (half male and half female) weighing 18-23 g were used. First, each mouse was placed on a hot plat at 55° C. to determine basic pain threshold for 2-3 times. Those animals with basic pain threshold of 5-30 s were qualified, unqualified mice were not used. 30 qualified mice were divided into five groups, including negative control group, positive control group, low-dose group, medium-dose group and high-dose group:\nMice in test groups received test sample solution (10 mg/kg, 20 mg/kg, 40 mg/kg) via subcutaneous injection in the neck. Positive control group received subcutaneous injection of morphine (2 mg/kg). One hour later, pain threshold values were determined for mice in each group as post-drug pain threshold. Percentage increase in pain threshold was calculated according to the following equation: […]"}, "[3]": {"biological_target": "opioid receptor subtype κ (Homo sapiens, UniProt P41145)", "sequence (P41145 whole entry)": "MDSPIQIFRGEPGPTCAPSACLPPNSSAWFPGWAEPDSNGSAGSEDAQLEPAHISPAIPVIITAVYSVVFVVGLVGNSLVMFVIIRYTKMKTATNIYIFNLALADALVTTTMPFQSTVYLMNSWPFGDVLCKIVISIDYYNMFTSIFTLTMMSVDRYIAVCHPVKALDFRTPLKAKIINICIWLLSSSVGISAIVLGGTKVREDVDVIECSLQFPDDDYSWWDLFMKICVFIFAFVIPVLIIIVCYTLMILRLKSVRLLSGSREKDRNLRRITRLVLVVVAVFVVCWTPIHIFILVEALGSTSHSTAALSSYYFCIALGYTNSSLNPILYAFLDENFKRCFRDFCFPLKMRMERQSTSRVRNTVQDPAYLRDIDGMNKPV", "experiment": "biochemical", "type": "binding", "description": "(§3) Competitive Binding Between the Compounds and Opioid Receptor Subtypes μ, δ, κ\n(§4) The respective test compounds were added to the sample tube (final concentration of 10^−5M), incubated at 37° C. for 30 min and placed in ice bath to terminate the reaction. The reaction mixture was filtered through GF/C(Whatman) glass fiber filter by vacuum filtration on a Millipore sample collector. The filter was washed three times with 50 mM Tris-HCl (pH7.4), each with 4 ml; dried and transferred into a 0.5 ml Eppendorf tube, in which 0.5 ml lipophilic scintillation fluid was added. Radioactivity was detected by a LS6500 scintillation counter. Each concentration had three duplicate test tubes and each separate test was repeated 3 to 4 times.\n(§5) Specific binding CMP value for each sample tube=overall binding CPM value for each sample tube-CPM value of non-specific binding tube. [Inhibition percentage of competitive binding between the test compound and different opioid receptor subtypes (%)=(100%−specific binding (CPM value) of sample tube/specific binding (CPM value) of solvent group×100%)]\n(§6) Average was taken for each test drug from three duplicate tubes; each test was repeated two or more times."}, "[4]": {"biological_target": "opioid receptor subtype μ (Homo sapiens, UniProt P35372)", "sequence (P35372 whole entry)": "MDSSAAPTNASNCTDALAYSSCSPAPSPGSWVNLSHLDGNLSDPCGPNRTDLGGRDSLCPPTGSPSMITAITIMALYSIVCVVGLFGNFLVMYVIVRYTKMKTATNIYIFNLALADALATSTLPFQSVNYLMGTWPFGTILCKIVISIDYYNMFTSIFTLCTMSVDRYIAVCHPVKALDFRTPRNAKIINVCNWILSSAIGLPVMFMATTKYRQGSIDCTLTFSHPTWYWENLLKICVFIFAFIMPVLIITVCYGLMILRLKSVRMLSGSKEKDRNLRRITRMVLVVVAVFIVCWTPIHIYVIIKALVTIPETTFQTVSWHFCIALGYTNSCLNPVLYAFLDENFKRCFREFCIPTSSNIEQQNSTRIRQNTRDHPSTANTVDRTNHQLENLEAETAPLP", "experiment": "biochemical", "type": "binding", "description": "as §3, §4, §5, §6"}, "[5]": {"biological_target": "opioid receptor subtype δ (Homo sapiens, UniProt P41143)", "sequence (P41143 whole entry)": "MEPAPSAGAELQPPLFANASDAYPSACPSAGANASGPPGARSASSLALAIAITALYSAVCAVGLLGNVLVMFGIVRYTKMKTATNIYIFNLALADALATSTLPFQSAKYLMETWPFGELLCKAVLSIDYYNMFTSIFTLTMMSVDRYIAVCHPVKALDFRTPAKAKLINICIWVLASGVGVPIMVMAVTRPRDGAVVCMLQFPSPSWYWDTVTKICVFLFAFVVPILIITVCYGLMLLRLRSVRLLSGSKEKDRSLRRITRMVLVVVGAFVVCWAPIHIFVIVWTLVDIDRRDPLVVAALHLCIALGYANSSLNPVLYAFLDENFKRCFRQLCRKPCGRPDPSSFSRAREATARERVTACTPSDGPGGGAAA", "experiment": "Competitive radioligand binding ([3H]Diprenorphine), opioid receptor subtype δ", "description": "as §3, §4, §5\nAverage was taken for each test drug from three duplicate tubes; each test was repeated two or more times. Data were presented as mean±SE and statistical comparison was made by ANOVA."}, "in vivo": {"experiment": "in vivo", "details": "mouse, po, mice", "text": "Studies of Acute Toxicity of the Compound I-1 and I-20\nFor statistics of 1-20, Bliss method was used (“Experimental Design and Statistical Basis for Drug Evaluation”, Changxiao Liu, Ruiyuan Su, first edition, Military Medical Science Press, 1993, 80-90)."}, "[6]": {"test_system": "Salmonella typhimurium histidine auxotroph mutants TA97, TA98, TA100 and TA102", "type": "cell-based", "description": "Bacterial Reverse Mutation Test on I-20\nBacterial reverse mutation test on compound I-20 was performed on Salmonella typhimurium histidine auxotroph mutants TA97, TA98, TA100 and TA102 (purchased from MolTox company) using conventional procedures of Ames test.\nObservation period: colony counting was done 48 hours after cultivation at 37° C.\nDrug solutions with different concentrations were prepared with double distilled water, and the doses were 5, 50, 500, 1000, 5000 μg/plate.\nDirect effect of the test drug in the absence of metabolic activity was determined by standard plate incorporation assay. The composition of the test top layer was: 2.0 ml top layer, 0.1 ml drug solution, 0.1 ml bacteria solution and 0.5 ml phosphate buffer.\nPre-incubation was used in the determination of the drug's mutagenic effect in the presence of metabolic activity. The composition of the test top layer is: 2.0 ml top layer, 0.1 ml drug solution, 0.1 ml bacteria solution and 0.5 ml S9 mix.\nThe resulting drug solution, bacterial solution and S9 mix were first incubated at 35° C. for 30 min while shaking, and then tested according to standard plate incorporation assay. Each dose was tested in three plates, each mutant was tested in the absence or presence of metabolic activity (−S9 or +S9) and repeated twice, the number of revertant colonies was calculated as x±SD.\nResults: the test included two parts, −S9 and +S9. […] Other doses had no bacteristatic effect to all strains, and the background growth was good."}, "[7]": {"experiment": "Animal model study of compound I-20 (summary statements)"}}, "note": "Entries after “also recorded” stand apart in the source; their conditions may differ. Marks after values point to notes of the source that are not given here.", "data": [{"smiles": "COc1ccccc1N1CCN([C@H](C)[C@H](O)c2ccccc2)CC1", "note": "(racemic) [Compound I-20, (1RS,2RS)-1-phenyl-2-(4-(2-methoxyphenyl)piperazinyl)-propan-1-ol]", "values": [{"measurement": "Inhibition percentage of writhing response", "setting": "Kunming mice [1]; 10 mg/kg Ig", "value": 46.61, "unit": "%"}, {"measurement": "Inhibition percentage of writhing response", "setting": "Kunming mice [1]; 20 mg/kg Ig", "value": "72.03 * %"}, {"measurement": "Inhibition percentage of writhing response", "setting": "Kunming mice [1]; 40 mg/kg Ig", "value": 64.41, "unit": "%"}, {"measurement": "Percentage increase in pain threshold", "setting": "Kunming mice [2]; 10 mg/kg S.c.", "value": "63.29 * %"}, {"measurement": "Percentage increase in pain threshold", "setting": "Kunming mice [2]; 20 mg/kg S.c.", "value": "80.88 * %"}, {"measurement": "Percentage increase in pain threshold", "setting": "Kunming mice [2]; 40 mg/kg S.c.", "value": "186.25 ** %"}, {"measurement": "Affinity to opioid receptor subtype κ (in words)", "setting": "[3]", "value": "no obvious affinity"}, {"measurement": "inhibition at 10 µM", "setting": "[3]; test concentration 10^−5 mol/L, [3H]Diprenorphine 0.4 nM, mean±SE, read-out: Inhibition percentage of competitive binding, κ", "value": "8.9 ± 0.2", "unit": "%"}, {"measurement": "Affinity to opioid receptor subtype μ (in words)", "setting": "[4]", "value": "no obvious affinity"}, {"measurement": "inhibition at 10 µM", "setting": "[4]; test concentration 10^−5 mol/L, [3H]Diprenorphine 0.4 nM, mean±SE, read-out: Inhibition percentage of competitive binding, μ", "value": "13.4 ± 2.1", "unit": "%"}, {"measurement": "Affinity to opioid receptor subtype δ (in words)", "setting": "[5]", "value": "no obvious affinity"}, {"measurement": "inhibition at 10 µM", "setting": "[5]; read-out: Inhibition percentage of competitive binding, δ", "value": 0, "unit": "%"}, {"measurement": "LD50", "setting": "in vivo", "value": 674, "unit": "mg/kg"}, {"measurement": "Ames test result", "setting": "[6]; TA97, TA98, TA100, TA102, −S9 and +S9, 5-5000 μg/plate", "value": "negative"}, {"measurement": "Bacteristatic effect on test strains", "setting": "[6]; TA98 in −S9 test system and TA97 in +S9 test system", "value": "bacteristatic effects"}, {"measurement": "Increase in the number of revertant colonies", "setting": "[6]; −S9 and +S9, 5, 50, 500, 1000, 5000 μg/plate", "value": "None of the tested dose resulted in significant increase"}, {"measurement": "Analgesic effect (in words)", "setting": "[7]; animal model study", "value": "obvious analgesic effect"}, {"measurement": "Potential for drug dependence", "setting": "[7]; in vivo", "value": "low potential for drug dependence"}, {"measurement": "Drug resistance after multiple applications", "setting": "[7]; multiple applications", "value": "No drug resistance is observed"}, {"measurement": "Absorption with oral administration (in words)", "setting": "[7]; oral administration", "value": "well absorbed; also recorded: good absorption"}]}]}
